{"source": "patent US10738028B2", "about": "“Spiro three-membered ring, spiro five-membered ring peptide deformylase inhibitor and use thereof in antibacteria and anti-tumor” (priority 2016, dated 2020)", "key": {"[1]": {"test_system": "Enterococcus faecalis (EFA)", "assay": "MIC, two-fold agar dilution (CLSI), clinical isolates", "format": "cell-based", "procedure,_shortened": "(§1)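 Susceptibility was tested using CLSI two-fold agar dilution against the strains examined.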"}, "[2]": {"test_system": "Escherichia coli (including ESBLs, non-ESBLs)", "assay": "MIC, two-fold agar dilution (CLSI), clinical isolates", "format": "cell-based", "procedure,_shortened": "as §1"}, "[3]": {"test_system": "methicillin-resistant Staphylococcus aureus (MRSA)", "assay": "MIC, two-fold agar dilution (CLSI), clinical isolates", "format": "cell-based", "procedure,_shortened": "as §1"}, "[4]": {"test_system": "methicillin-resistant Staphylococcus epidermidis (MRSE)", "assay": "MIC, two-fold agar dilution (CLSI), clinical isolates", "format": "cell-based", "procedure,_shortened": "as §1"}, "[5]": {"test_system": "methicillin-sensitive Staphylococcus aureus (MSSA)", "assay": "MIC, two-fold agar dilution (CLSI), clinical isolates", "format": "cell-based", "procedure,_shortened": "as §1"}, "[6]": {"test_system": "methicillin-sensitive Staphylococcus epidermidis (MSSE)", "assay": "MIC, two-fold agar dilution (CLSI), clinical isolates", "format": "cell-based", "procedure,_shortened": "as §1"}, "[7]": {"test_system": "HCT-116 colorectal cancer cell line", "assay": "CCK-8 proliferation inhibition", "format": "cell-based", "settings": "Homo sapiens, HCT-116, 72 h, read-out: HCT116 inhibition rate/%", "procedure,_shortened": "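Cells were plated overnight at 2000 cells/well, then compound in culture medium was added at a range of final concentrations. After 72 hours in a CO2 incubator, medium was replaced with 1:10 CCK-8 solution for the read-out.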"}, "[8]": {"test_system": "methemoglobin in blood samples of three healthy volunteers", "assay": "Toxicity on methemoglobin in vitro (whole blood with S9 and NADPH, absorbance at 630 nm)", "format": "cell-based, human", "method": "Because PDF inhibitors such as LBM415 and GSK1322322 can produce active species such as aromatic hydroxylamine and aromatic hydrazines in metabolic process, and cause human methemoglobinemia. To this end, continuous wavelength method was adopted in this invention to scan the absorption spectrum of blood samples in the wavelength range of 500 to 700 nm in the ultraviolet-visible spectrophotometer, and the contents of methemoglobin in blood samples of three healthy volunteers were calculated, after being effected by the synthesized compounds.\nExperimental materials: Nicotinamide adenine dinucleotide phosphate (NADPH) reduction system: glucose-6-disodium phosphate, nicotinamide adenine dinucleoside phosphate and glucose-6-phosphate dehydrogenase (purchased from Shanghai yuanye Bio-Technology Co., Ltd) were added to 1 mL of phosphate buffer solution (PBS, pH 7.4), and the mixture was shaked in a shaker type water bath at 37° C. for 10 min, and then cooled to 0° C. Mixed human hepatocytes fraction S9 was purchased from Xenotech (20 mg S9 protein/1 mL suspension medium). Compounds were prepared to stock solution at a concentration of 50 mM, which was stored at −20° C. for use. Dapsone was used as positive control experimental reagent, which was purchased from Sigma Aldrich. 1% w/v triton X-100 was self-prepared. Blood samples were collected using Vacutainer tubes containing EDTA anticoagulants (BD, Franklin Lakes, USA), which were sampled from three healthy volunteers and used immediately after sampling.\nPreparation of incubation system for blood samples and drugs: 250 μL of incubation system was consist of 220 μL of whole blood, 25 μL of S9 (final concentration: 2 mg S9 protein/mL incubation solution), 2.5 μL of NADPH form system (final concentration: 10 mM G-6-P, 1 mM NADP, 7.5 Units/mL) and 2.5 μL of stock solution of a compound (final concentration 500 μM). […] of incubation system was placed in an Eppendorf tube and incubated for 5 hours at 37° C. in water bath.\nDetermination of the content of methemoglobin: 60 μL of an incubated sample was taken and lysed with 3.0 mL of 1% Triton X-100. The content of methemoglobin (MetHb) was measured by an ultraviolet-visible spectrophotometer, with the Triton X-100 solution used as blank control. A sample was placed in a cuvette, 1 minute later, the spectrums of the sample in the wavelength range from 500 nm to 700 nm were recorded. The sample was added with 2 mg of potassium ferricyanide, and was allowed to stay stationary for 2 minutes for completely oxidization of ferrous iron in the sample, and standard spectrum of methemoglobin with saturated potassium ferricyanide. The percentage of methemoglobin formation (MetHb %) was obtained by the ratio of absorbance at 630 nm. MetHb %=(A′−AB′)/AM′, wherein, A′ was the total absorbance of the sample at 630 nm, AB′ was the base absorbance of the reduced blood in the sample at 630 nm, and AM′ was the absorbance of oxidized blood with saturated potassium ferricyanide at 630 nm."}, "[9]": {"assay": "MIC in vitro anti-bacterial experiments, Gram-positive bacteria", "format": "cell-based", "settings": "read-out: minimum inhibitory concentration against Gram-positive bacteria", "description": "1. The invention adopts the two-fold agar dilution method recommended by the operating procedure of antimicrobial susceptibility testing set by American Clinical and Laboratory Standards Institute (CLSI) to determine the Minimum Inhibitory Concentration (MIC) of the test samples against the tested strains."}}, "data": [{"compound": "CCCC[C@H](CN(O)C=O)C(=O)N1CC2(CC2)C[C@H]1C(=O)Nc1cc(C(C)(C)C)on1", "note": "[Example 3]", "values": [{"measurement": "MIC (anti-bacterial activity)", "setting": "[1]; strain EFA 14-1", "result": 0.5, "unit": "µg/mL"}, {"measurement": "MIC (anti-bacterial activity)", "setting": "[1]; strain EFA 14-2", "result": 0.5, "unit": "µg/mL"}, {"measurement": "MIC (anti-bacterial activity)", "setting": "[1]; strain EFA 14-3", "result": 0.5, "unit": "µg/mL"}, {"measurement": "MIC (anti-bacterial activity)", "setting": "[1]; strain EFA 14-5", "result": "> 128", "unit": "µg/mL"}, {"measurement": "MIC (anti-bacterial activity)", "setting": "[2]; strain ECO+ 14-1", "result": 1, "unit": "µg/mL"}, {"measurement": "MIC (anti-bacterial activity)", "setting": "[2]; strain ECO+ 14-2", "result": 64, "unit": "µg/mL"}, {"measurement": "MIC (anti-bacterial activity)", "setting": "[2]; strain ECO− 14-1", "result": 64, "unit": "µg/mL"}, {"measurement": "MIC (anti-bacterial activity)", "setting": "[2]; strain ECO− 14-2", "result": 64, "unit": "µg/mL"}, {"measurement": "MIC (anti-bacterial activity)", "setting": "[3]; strain MRSA 14-1", "result": 0.06, "unit": "µg/mL"}, {"measurement": "MIC (anti-bacterial activity)", "setting": "[3]; strain MRSA 14-2", "result": 0.06, "unit": "µg/mL"}, {"measurement": "MIC (anti-bacterial activity)", "setting": "[3]; strain MRSA 14-4", "result": "< 0.008", "unit": "µg/mL"}, {"measurement": "MIC (anti-bacterial activity)", "setting": "[3]; strain MRSA 14-5", "result": 0.06, "unit": "µg/mL"}, {"measurement": "MIC (anti-bacterial activity)", "setting": "[3]; strain printed MRSA 14-1 (second line of that name, r23, before MRSE 14-2)", "result": 0.03, "unit": "µg/mL"}, {"measurement": "MIC (anti-bacterial activity)", "setting": "[4]; strain MRSE 14-2", "result": 0.03, "unit": "µg/mL"}, {"measurement": "MIC (anti-bacterial activity)", "setting": "[4]; strain MRSE 14-3", "result": 0.015, "unit": "µg/mL"}, {"measurement": "MIC (anti-bacterial activity)", "setting": "[4]; strain MRSE 14-4", "result": 0.03, "unit": "µg/mL"}, {"measurement": "MIC (anti-bacterial activity)", "setting": "[5]; strain MSSA 14-1", "result": 0.125, "unit": "µg/mL"}, {"measurement": "MIC (anti-bacterial activity)", "setting": "[5]; strain MSSA 14-2", "result": 0.125, "unit": "µg/mL"}, {"measurement": "MIC (anti-bacterial activity)", "setting": "[5]; strain MSSA 14-3", "result": 0.25, "unit": "µg/mL"}, {"measurement": "MIC (anti-bacterial activity)", "setting": "[5]; strain MSSA 14-4", "result": 0.06, "unit": "µg/mL"}, {"measurement": "MIC (anti-bacterial activity)", "setting": "[6]; strain MSSE 14-1", "result": 0.03, "unit": "µg/mL"}, {"measurement": "MIC (anti-bacterial activity)", "setting": "[6]; strain MSSE 14-2", "result": 0.125, "unit": "µg/mL"}, {"measurement": "MIC (anti-bacterial activity)", "setting": "[6]; strain MSSE 14-3", "result": 0.015, "unit": "µg/mL"}, {"measurement": "MIC (anti-bacterial activity)", "setting": "[6]; strain MSSE 14-4", "result": 0.015, "unit": "µg/mL"}, {"measurement": "inhibition at 30 µM", "setting": "[7]", "result": 2, "unit": "%"}, {"measurement": "MetHb % (n = 3)", "setting": "[8]; 500 μM compound, whole blood + S9 + NADPH, 5 hours at 37° C.", "result": "3.33 ± 0.06", "unit": "%"}, {"measurement": "probability of methemoglobin formation in blood compared with the control drugs LBM415 and GSK1322322", "setting": "[8]; toxicity test in vitro, in words", "result": "lower probability of methemoglobin formation in blood"}, {"measurement": "MIC", "setting": "[9]", "result": "< 0.008", "unit": "µg/mL"}]}]}
